# Results as given in patent US6339073B1, “Uses of nicotinamide adenine dinucleotide and its derivatives for treatment of malignant and infectious diseases” (Oxigene, Inc., priority 1997, dated 2002).
# Columns and labels:
# [1] = system: HL60 (human promyeloid leukemia line) cells; assay: Measurement of in vitro cytotoxicity by apoptosis; format: cell-based
# Protocol: Cell culture. HL60 (human promyeloid leukemia line) cells were cultured at a density of 0.5×106 to 1.0×10^6 cells/ml in RPMI medium supplemented with 10% fetal calf serum (FCS) at 37° C. in a 5% CO2 atmosphere. The cells were harvested by centrifugation and resuspended in fresh medium at a concentration of 1×106 to 2×10^6 cells/ml for bioassay purposes.
# Measurement of in vitro cytotoxicity by apoptosis. HL60 cells were exposed in culture to 2 Gy radiation, 100 μM nMCA (neutral metoclopramide, Neu-Sensamide), 0-5000 μM NAD±10 mM, and±NADase inhibitor, 3-acetyl pyridine adenine dinucleotide, given 30 minutes before drug treatment. The % apoptosis was determined after 6 hours. The cytotoxicity was evaluated by morphological identification of apoptotic cells (400 ×magnification with phase contrast microscopy) using trypan blue exclusion (0.1% isotonic solution+5% serum) after 5 minutes incubation at room temperature. Apoptotic cells were identified as having chromatin condensation, shrinkage, membrane blebbing, fragmentation and appearance of “apoptotic bodies” (Kaufman et al, Cancer Res. 53:3976-3985, 1993).
# [2] = system: HL60 cells; assay: cells
# Protocol: Assessment of cytotoxicity in HL60 and K562 cells by clonogenic assay. The assay used is based on Schweitzer et al (Exper. Hematol. 21: 573-578, 1993). HL60 or K562 cells were cultured in 96-well microplates, at 800 cells per well, in a medium of 0.6% methyl cellulose (Methocel A4M, Dow Chemicals, USA), 10% fetal calf serum, RPMI 1640 (Life Technologies Ltd, UK), and gentamycin (50 μg/ml, Biological Industries, Israel). Microculture wells received 10 μl of NAD, NADP, NADH, ADP-ribose, nicotinamide (NAM), or 3-acetyl pyridine adenine dinucleotide solutions within which the final concentrations were adjusted to be between 0-5000 μM after addition of 190 μl cell-containing medium. Final methyl cellulose concentration was 0.6%. […] In the case of the radiosensitization experiments, the cells were irradiated with 1-2 Gy gamma radiation 15 minutes before addition of NAD. The central area of the bottom of each well (25% of total) was counted, and the counts of colonies and clusters expressed as % of control in order to avoid influences from inter-experimental baseline variations.
# [3] = system: K562 leukemic cells; format: cell-based
# Text: Final methyl cellulose concentration was 0.6%.
# [4] = system: human lung adenocarcinoma (H2981) xenograft; assay: Evaluation of antitumor activity of NAD in vivo; set-up: species or system Scid mice; details: NAD i.p. 25 or 50 mg/kg, 21 days
# Protocol: Evaluation of antitumor activity of NAD in vivo. Scid mice (n=10 per group) were transplanted by subcutaneous injection of H-2981 (human adenocarcinoma) tumor tissue suspension in the right flank. When the tumors grew to 80-100 mm2, the animals were divided into three groups: Group 1 was injected i.p. with saline, Group 2 was injected i.p. with NAD at 25 mg/kg dissolved in saline, and Group 3 was injected i.p. with NAD at 50 mg/kg. The treatment schedule was daily Monday through Friday with no treatment Saturday and Sunday for 21 days. Tumor volumes were recorded every other day for 21 days and converted to AUC tumor growth values as previously described in detail (Hua et al, Anti-Cancer Drugs 6: 451-455, 1995).
compound,measurement,setting,value
"CC(=O)c1ccc[n+]([C@@H]2O[C@H](COP(=O)([O-])OP(=O)(O)OC[C@H]3O[C@@H](n4cnc5c(N)ncnc54)[C@H](O)[C@@H]3O)[C@@H](O)[C@H]2O)c1 [3-acetyl pyridine adenine dinucleotide, reference compound]",induction of apoptosis,"[1]; % apoptosis after 6 hours, without NADase inhibitor",cannot induce cytoxicity by apoptosis
same,clonogenic cytotoxicity (number of colonies),[2],can nonetheless show cytotoxicity
same,clonogenic cytotoxicity (number of colonies),[3],can nonetheless show cytotoxicity
Nc1ncnc2c1ncn2[C@@H]1O[C@H](COP(=O)(O)OP(=O)(O)OC[C@H]2OC(O)[C@H](O)[C@@H]2O)[C@@H](O)[C@H]1O (some centres unmarked) [ADP-ribose],clonogenic cytotoxicity (number of colonies),[2],equally effective at inducing cytotoxicity
same,clonogenic cytotoxicity (number of colonies),[3],the same
"NC(=O)c1ccc[n+]([C@@H]2O[C@H](COP(=O)([O-])OP(=O)(O)OC[C@H]3O[C@@H](n4cnc5c(N)ncnc54)[C@H](O)[C@@H]3O)[C@@H](O)[C@H]2O)c1 [NAD, nicotinamide adenine dinucleotide]",body weight loss or acute symptoms,[4],no significant body weight loss or acute symptoms
same,IC50,"[2]; Homo sapiens, HL-60, 144 h, read-out: Doses that result in >50% inhibition of clonogenicity",< 500 µM
same,clonogenic cytotoxicity (number of colonies),[3],the same
NC(=O)C1=CN([C@@H]2O[C@H](COP(=O)(O)OP(=O)(O)OC[C@H]3O[C@@H](n4cnc5c(N)ncnc54)[C@H](O)[C@@H]3O)[C@@H](O)[C@H]2O)C=CC1 [NADH],clonogenic cytotoxicity (number of colonies),[2],equally effective at inducing cytotoxicity
"NC(=O)c1cccnc1 [Nicotinamide, nicotinamide]",clonogenic cytotoxicity (number of colonies),[2],little to no effect on clonogenicity
"CCN(CC)CCNC(=O)c1cc(Cl)c(N)cc1OC [nMCA, neutral metoclopramide]",effect of NADase inhibitor on drug induced apoptosis,"[1]; 10 mM 3-acetyl pyridine adenine dinucleotide given 30 minutes before drug, 6 hours",unaffected by the presence of the NADase inhibitor
